Test results published in patent US9089850B2, “Method and apparatus for separation of pharmaceutical materials on the basis of their density” (Syracuse University, priority 2009, dated 2015).
Like-named read-outs stand apart in the source and are kept apart here.

Columns and labels:
[1] = Density gradient analysis of fresh, quickly crystallized sulfathiazole samples; assay type: physicochemical; settings: relative amount of form in density gradient; benzene/chloroform to tetrachloroethylene gradient
Excerpt: Our density gradient methodology is a refinement and extension to the pharmaceutical industry of existing well-established methodologies in other fields. [Bomstein & Steberl, 1959; Kind & Summerscales, 1966; US 2004/6,709,871 B2; Richards, 1999; ASTM D 1505-98; ISO 1183-2:2004; Yanagi, 2010; Doom, 2010; Chernov, 2009a.b; Moshammer, 2009; Fleurier, 2009; Kato, 2009; Deng, 2008, 2009; Park, 2008; Lu, 2006; Hersam, 2006]. A density gradient is made with a “gradient maker” consisting of two chambers connected through a stopcock and with a second stopcock on one of the containers to an outflow tube. A mixer is used in the outflow chamber.
We have developed this technique to optimize reliability and visibility of the resulting separated materials. In particular, we have created a device that permits the formation of identical gradients in one overall unobstructed container (see FIG. 3 and FIG. 4). These columns are at the outer wall of the overall cylindrical container. A central black column permits viewing of the materials in each column individually. The tubes that will contain the samples of crystalline material are open at the bottom; the gradient maker fills all columns simultaneously forming identical gradients.
A density gradient was prepared in the device described above using a mixture of benzene and chloroform (ρ=1.32 g/cm^3) as one liquid and tetrachloroethylene (ρ=1.62 g/cm^3) as the other.
Fresh crystalline samples of solid sulfathiazole were prepared by crystallizing about 50 mg of sulfathiazole (Sigma-Aldrich lot 028K1522) from water, methanol, ethanol, isopropanol and n-butanol by dissolving them at about 55° C. and then cooling to ambient temperature to form crystals at which point material was harvested. All materials were made at the same time, isolated within an hour of each other and dried with a stream of argon gas.
Based on the density gradient analysis, this rapid crystallization gives from water a mixture of forms III and IV in about equal amount, from both methanol and ethanol form II and III, from isopropanol a mixture of forms I, II and III and from n-butanol form I. The bands for this last material are distinctly more compact than those of the other forms.
One of the major benefits of the gradient method is that it provides an immediate visual report of the number of materials in an API preparation. A qualitative interpretation of the relative amounts of components in the gradient is easily made. A more quantitative estimate could be obtained by a simple light scattering analysis with simple added apparatus that performs either transmission or 90 degree scattering measurements. Calibration of the light scattering signal as a function of the amount of API could be performed using a sample in a very steep gradient (and thus not separated). This would make this a semi-quantitative method.

[2] = polymorphic form expected for the crystallization solvent, previous work [Parmar, 2007]; cited from earlier work
[3] = cited from earlier work
[4] = Seeding experiment in n-propanol with flotation density test; assay type: physicochemical; settings: crystals slowly grown in n-propanol at ambient temperature, seeded with material of form III density
Excerpt: Parmar, 2007 states that crystallization from n-propanol yields form I and that that form is stable in this solvent. In a seeding experiment we harvested material that was the right density for form III and used this to seed crystallization in n-propanol. The resulting crystals, slowly grown at ambient temperature, are not consistent with form I or form III, but are consistent with form II. The density by a flotation density test indicates this material to be form II. The observation that form II is obtained in this case is quite probably due to the presence of a small amount of form II in the predominantly form III sample. […] That is not the case with our seed crystals.

Form II [1] | Form III [1] | Form IV [1] | SMILES | Expected [23] [2] | further results
minor | major | major | Nc1ccc(S(=O)(=O)Nc2nccs2)cc1 [Tube A, sulfathiazole] | Form IV | 
major | major | minor | Nc1ccc(S(=O)(=O)Nc2nccs2)cc1 [Tube B, sulfathiazole] | Form II | 
major | major | minor | Nc1ccc(S(=O)(=O)Nc2nccs2)cc1 [Tube C, sulfathiazole] | Form IV | 
major | minor | very | Nc1ccc(S(=O)(=O)Nc2nccs2)cc1 [Tube D, sulfathiazole] | Form III | Form I [1]: very
 |  |  | Nc1ccc(S(=O)(=O)Nc2nccs2)cc1 [Tube E, sulfathiazole] | Form I | Form I [1]: major
 |  |  | Nc1ccc(S(=O)(=O)Nc2nccs2)cc1 [form I, sulfathiazole] |  | density ([3]; single crystal x-ray results [Blagden, 1998], listed as I): 1.500
 |  |  | Nc1ccc(S(=O)(=O)Nc2nccs2)cc1 [form II, sulfathiazole] |  | density ([3]; single crystal x-ray results [Blagden, 1998], listed as II): 1.551
 |  |  | Nc1ccc(S(=O)(=O)Nc2nccs2)cc1 [form III, sulfathiazole] |  | density ([3]; single crystal x-ray results [Blagden, 1998], listed as III): 1.569
 |  |  | Nc1ccc(S(=O)(=O)Nc2nccs2)cc1 [form IV, sulfathiazole] |  | density ([3]; single crystal x-ray results [Blagden, 1998], listed as IV): 1.595
 |  |  | Nc1ccc(S(=O)(=O)Nc2nccs2)cc1 [form V, sulfathiazole] |  | density ([3]; synchrotron x-ray powder diffraction study [Chan, 1999]): 1.484
 |  |  | Nc1ccc(S(=O)(=O)Nc2nccs2)cc1 [sulfathiazole] |  | polymorphic form by flotation density test [4]: form II
